Laboratory results from patent publication US10844051B2, “Substituted oxazoles for the treatment of cancer” (THE ROYAL INSTITUTION FOR THE ADCANCEMENT OF …, priority 2015, dated 2020).
pKd: −log10 of the molar value. Entries after “also recorded” stand apart in the source; their conditions may differ. One block for each compound: values may come before it.

Legend:
[1] = system: EZH2, c-Myc and ERG expression in VCaP cells; assay: Expression of EZH2, c-Myc and ERG in VCaP cells; assay type: cell-based; conditions: 10 μM, 72 hours
Description: VCaP cells were exposed to DMSO vehicle control, 648, 698 and 891 at 10 μM for 72 hours in DMEM medium plus 10% FBS or phenol red-free DMEM medium plus 10% charcoal-stripped FBS (CS-FBS).

ERG = target: T1, ERG (Homo sapiens, UniProt P11308); assay: ERG-dependent reporter assay in HEK293 cells; assay type: cell-based; design: expressed in transfected cells; host or cells: HEK293; conditions: PUx3-Luc reporter, 48 hours, designated doses
T1 sequence (P11308 1-486 isoform P11308-3): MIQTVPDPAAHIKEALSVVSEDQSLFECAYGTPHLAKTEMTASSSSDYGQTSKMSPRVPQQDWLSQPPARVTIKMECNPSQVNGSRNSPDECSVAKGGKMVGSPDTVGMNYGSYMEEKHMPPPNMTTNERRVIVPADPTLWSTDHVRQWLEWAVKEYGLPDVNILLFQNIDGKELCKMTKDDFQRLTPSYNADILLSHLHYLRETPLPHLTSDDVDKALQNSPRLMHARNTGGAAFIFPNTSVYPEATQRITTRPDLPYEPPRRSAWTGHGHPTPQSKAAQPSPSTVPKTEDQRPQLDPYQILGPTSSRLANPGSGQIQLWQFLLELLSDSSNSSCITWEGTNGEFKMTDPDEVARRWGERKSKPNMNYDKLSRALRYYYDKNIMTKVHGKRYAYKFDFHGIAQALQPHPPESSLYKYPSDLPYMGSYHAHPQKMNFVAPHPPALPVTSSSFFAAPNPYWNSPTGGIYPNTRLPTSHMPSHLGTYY
Description: (§1) HEK293 cells were transiently transfected with empty vector (for the NT) or ERG-expressing plasmid as well as pRL-TK (internal control) and PUx3-Luc reporter. Cells were then exposed to DMSO vehicle or compounds at designated doses for 48 hours. Experiments were done in triplicate.

ESE-1 = target: T2, ESE-1 (Homo sapiens, UniProt P78545); assay: ESE-1 dependent reporter assay in HEK293 cells; assay type: cell-based; conditions: 48 hours
T2 construct: expressed in transfected cells; host or cells: HEK293
T2 sequence (P78545 1-371): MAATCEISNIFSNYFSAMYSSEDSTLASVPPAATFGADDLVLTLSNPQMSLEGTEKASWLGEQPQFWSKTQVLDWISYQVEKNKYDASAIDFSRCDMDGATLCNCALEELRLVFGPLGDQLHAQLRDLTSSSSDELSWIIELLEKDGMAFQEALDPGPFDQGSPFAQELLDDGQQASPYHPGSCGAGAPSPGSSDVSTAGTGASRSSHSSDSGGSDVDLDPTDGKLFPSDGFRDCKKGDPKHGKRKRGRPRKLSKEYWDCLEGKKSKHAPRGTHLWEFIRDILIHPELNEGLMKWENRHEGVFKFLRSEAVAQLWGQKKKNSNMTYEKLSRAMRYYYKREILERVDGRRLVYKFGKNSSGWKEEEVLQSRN
Description: as §1
Experiments were done as described above in FIG. 1.1a) except that ERG plasmid was replaced by ESE-1 plasmid.

human STING (hSTING) = target: T3, human STING (hSTING) (Homo sapiens, UniProt Q86WV6); assay: hSTING ISRE-luc reporter assay in 293T cells; assay type: cell-based; conditions: 24 hours
T3 construct: expressed in transfected cells; host or cells: 293T
T3 sequence (Q86WV6 whole entry H232R): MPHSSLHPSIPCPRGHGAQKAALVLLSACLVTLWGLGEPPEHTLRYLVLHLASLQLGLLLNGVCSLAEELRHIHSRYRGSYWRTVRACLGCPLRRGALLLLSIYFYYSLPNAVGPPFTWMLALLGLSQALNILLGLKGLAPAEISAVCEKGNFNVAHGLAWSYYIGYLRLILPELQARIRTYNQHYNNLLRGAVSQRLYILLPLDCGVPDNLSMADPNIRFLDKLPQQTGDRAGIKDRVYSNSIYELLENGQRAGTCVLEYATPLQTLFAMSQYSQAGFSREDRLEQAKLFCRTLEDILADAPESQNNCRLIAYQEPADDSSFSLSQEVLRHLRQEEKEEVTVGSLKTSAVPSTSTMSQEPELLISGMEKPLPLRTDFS
Description: ISRE-luc (reporter), pRL-TK (internal control) and hSTING-expressing plasmids were transiently transfected into 293T cells. Cells were exposed to DMSO vehicle control or compounds for 24 hours. Experiments were done in triplicate.

Panc 10.05 cells = assay: Western blot, apoptosis (cleaved PARP) in Panc 10.05 cells; assay type: cell-based; conditions: 24 hours
Description: (§2) C-PARP, cleaved PARP. Panc10.05 cells were exposed to DMSO vehicle or compounds at designated doses for 24 hours.

human GATA3 = target: T4, human GATA3 (Homo sapiens, UniProt P23771); assay: GATA3-dependent reporter assay in IHH cells; assay type: cell-based; conditions: 48 hours, 10 μM
T4 construct: expressed in transfected cells; host or cells: IHH
T4 sequence (P23771 whole entry): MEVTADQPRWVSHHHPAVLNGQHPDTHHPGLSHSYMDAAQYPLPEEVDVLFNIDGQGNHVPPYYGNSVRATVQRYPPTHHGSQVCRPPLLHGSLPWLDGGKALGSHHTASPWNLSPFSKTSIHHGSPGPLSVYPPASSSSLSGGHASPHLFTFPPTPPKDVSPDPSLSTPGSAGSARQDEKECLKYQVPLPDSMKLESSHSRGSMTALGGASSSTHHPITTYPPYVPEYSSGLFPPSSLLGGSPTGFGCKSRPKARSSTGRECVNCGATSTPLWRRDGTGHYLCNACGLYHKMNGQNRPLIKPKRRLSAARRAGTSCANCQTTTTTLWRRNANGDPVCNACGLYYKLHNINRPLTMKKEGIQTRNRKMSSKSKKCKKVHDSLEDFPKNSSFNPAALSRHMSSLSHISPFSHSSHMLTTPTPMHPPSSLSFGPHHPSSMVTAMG
Description: The IHH cells were transiently transfected with empty vector (for the NT) or human GATA3-expressing plasmid as well as pRL-TK (internal control) and GATA-Luc reporter plasmids. Cells were exposed to DMSO vehicle or compounds for 48 hours. Experiments were done in triplicate.

[2] = target: T5, recombinant human KRAS 12D mutant protein (Homo sapiens, UniProt P01116, G12D); assay: SPR analysis on amine-coupled KRAS (G12D mutant); assay type: binding; conditions: for pKd: PBS-T containing 1 μM GDP, steady-state
T5 construct: purchased ORIGENE TP700052
T5 sequence (P01116 1-188 isoform P01116-2 G12D): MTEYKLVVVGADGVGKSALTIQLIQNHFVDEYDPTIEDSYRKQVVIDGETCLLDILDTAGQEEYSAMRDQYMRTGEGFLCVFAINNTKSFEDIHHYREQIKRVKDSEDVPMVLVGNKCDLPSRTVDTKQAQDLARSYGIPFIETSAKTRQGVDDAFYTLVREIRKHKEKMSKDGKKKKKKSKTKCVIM
Description: FIG. 4.1 SPR analysis. Left panels, SPR sensorgrams for compounds 784 and 895 binding to 3500 RU amine-coupled KRAS (G12D mutant) at 25 μL/min in PBS-T containing 1 μM GDP. Right panels, corresponding non-linear regression analyses of steady-state binding responses versus concentration to determine apparent equilibrium dissociation constants (KD).
Since activation of KRAS leads to activation of NF-kB,^69 we performed in vitro screening of our compounds by KRAS mutant-dependent NF-kB-luc reporter assay in HEK293 cells. […] Also, compounds of the invention are cytotoxic to PANC 10.05 pancreatic cancer cells, H23 NSCLC cells and HCT-116 colorectal cancer cells (FIG. 4.5).

human GATA2 = target: T6, human GATA2 (Homo sapiens, UniProt P23769); assay: GATA2-dependent reporter assay in IHH cells; assay type: cell-based; conditions: GATA-Luc reporter, 48 h
T6 construct: expressed in transfected cells; host or cells: IHH
T6 sequence (P23769 1-480): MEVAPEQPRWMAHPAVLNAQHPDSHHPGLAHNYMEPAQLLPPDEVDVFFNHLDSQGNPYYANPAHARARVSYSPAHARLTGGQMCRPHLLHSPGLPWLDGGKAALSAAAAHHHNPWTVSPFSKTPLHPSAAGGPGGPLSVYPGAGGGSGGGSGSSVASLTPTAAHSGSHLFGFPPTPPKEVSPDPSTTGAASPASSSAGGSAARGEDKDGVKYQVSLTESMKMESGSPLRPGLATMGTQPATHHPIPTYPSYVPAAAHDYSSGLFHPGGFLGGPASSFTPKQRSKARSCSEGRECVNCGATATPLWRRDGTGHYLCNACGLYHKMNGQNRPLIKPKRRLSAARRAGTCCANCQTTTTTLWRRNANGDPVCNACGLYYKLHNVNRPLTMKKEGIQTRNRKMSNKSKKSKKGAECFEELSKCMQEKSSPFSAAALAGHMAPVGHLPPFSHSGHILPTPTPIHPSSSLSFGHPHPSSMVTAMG
Description: K7174 is a known GATA2 inhibitor. The IHH cells were transiently transfected with empty vector (for the NT) or human GATA2-expressing plasmid as well as pRL-TK (internal control) and GATA-Luc reporter plasmids. Cells were exposed to DMSO vehicle or compounds for 48 h. Experiments were in triplicate.

[3] = system: phosphorylation of ERK in Panc 10.05 cells; assay: Western blot, phosphorylation of ERK in Panc 10.05 cells; assay type: cell-based; conditions: 24 hours
Description: as §2
Panc10.05 cells were exposed to DMSO vehicle or compounds at designated doses for 24 hours.

LNCaP cells = assay: MTT cytotoxicity assay in ETV1-positive LNCaP cells; assay type: cell-based; conditions: 72 hours
Description: FIG. 1.8 Cytotoxicity of compounds 827 and 832 in the ETV1-postive LNCaP cells as evaluated by MTT assay (72 hours).

ETV1 = target: T7, ETV1 (Homo sapiens, UniProt P50549); assay: ETV1-dependent reporter assay in HEK293 cells; assay type: cell-based; conditions: 48 hours
T7 construct: expressed in transfected cells; host or cells: HEK293
T7 sequence (P50549 1-477): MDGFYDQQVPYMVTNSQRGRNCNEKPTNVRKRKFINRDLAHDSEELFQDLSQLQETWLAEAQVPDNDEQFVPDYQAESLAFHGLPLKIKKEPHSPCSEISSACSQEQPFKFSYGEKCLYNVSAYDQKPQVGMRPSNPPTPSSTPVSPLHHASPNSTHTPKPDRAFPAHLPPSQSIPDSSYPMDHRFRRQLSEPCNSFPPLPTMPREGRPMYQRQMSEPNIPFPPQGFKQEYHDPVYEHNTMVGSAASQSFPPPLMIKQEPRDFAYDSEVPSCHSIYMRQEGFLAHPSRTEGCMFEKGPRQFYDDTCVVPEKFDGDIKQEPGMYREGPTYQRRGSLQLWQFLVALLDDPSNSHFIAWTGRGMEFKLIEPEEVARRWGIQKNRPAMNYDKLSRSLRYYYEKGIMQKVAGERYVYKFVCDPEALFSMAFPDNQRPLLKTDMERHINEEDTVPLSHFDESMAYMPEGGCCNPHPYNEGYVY
Description: as §1
Experiments were done as described above in FIG. 1.1a) except that ERG plasmid was replaced by ETV1 plasmid.

[4] = system: phosphorylation of ERK in HCT-116 cells; assay: Western blot, phosphorylation of ERK in HCT-116 cells; assay type: cell-based; conditions: 10 μM, 24 hours
Description: HCT-116 cells were exposed to DMSO vehicle or compounds at designated doses for 24 hours.

[5] = system: Panc10.05 pancreatic cancer cells; assay: MTT analysis, Panc10.05; assay type: cell-based; conditions: endogenous KRAS 12D, 72 hours
Description: (§3) Panc 10.05, H23 and HCT-116 cells express endogenous KRAS 12D, 12C and 13D mutants, respectively. Cells were exposed to DMSO vehicle or compounds at designated doses for 72 hours. Experiments were done in triplicate.

[6] = system: HCT-116 colorectal cancer cells; assay: MTT analysis, HCT-116; assay type: cell-based; conditions: endogenous KRAS 13D, 72 hours
Description: as §3

[7] = system: H23 KRAS-mutant NSCLC cells; assay: MTT assay, H23; assay type: cell-based; conditions: endogenous KRAS 12C, 72 hours
Description: FIG. 2.7 Compound 673 is cytotoxic in KRAS-mutant NSCLC cells (A549 and H23), but is not toxic the KRAS wild-type NSCLC cells (H322). Cells were exposed to vehicle or compounds (μM) for 72 hours. Viable cells were evaluated by MTT assays.
as §3

Structure (SMILES): c1coc(-c2nc(Cc3c[nH]c4ccccc34)[nH]c2-c2ccco2)c1 [Compound 832]
cytotoxicity in ETV1-positive LNCaP cells (MTT) (LNCaP cells): cytotoxic
ETV1 inhibition in ETV1-dependent reporter assay (ETV1): ETV1 inhibitors

Structure (SMILES): Oc1ccccc1-c1nc(Cc2c[nH]c3ccccc23)oc1-c1ccccc1O [Compound 891]
inhibition of expression of EZH2, c-Myc and ERG [1]: inhibit expression of EZH2, c-Myc and ERG

Structure (SMILES): COc1ccc(CC/C(=C/C(=O)N2CCC(O)(c3ccccc3)CC2)c2ccccc2)cc1F [Compound 895]
induction of apoptosis (cleaved PARP, Western blot) (Panc 10.05 cells): induced apoptosis
direct binding with KRAS G12D mutant (SPR) [2]: Direct binding
pKd [2]: 4.35
suppression of phosphorylation of ERK (Western blot) [4]: potently suppressed phosphorylation of ERK
suppression of phosphorylation of ERK (Western blot) ([3]; designated doses): dose-dependently suppressed phosphorylation of ERK

Structure (SMILES): N#CCN(CCc1c[nH]c2ccccc12)Cc1nc(-c2cccc(F)c2)c(-c2cccc(F)c2)[nH]1 [Compound 1186]
inhibition of proliferation of Panc10.05 cells (MTT) [5]: dose-dependently inhibit proliferation
suppression of phosphorylation of ERK (Western blot) [4]: potently suppressed phosphorylation of ERK
suppression of phosphorylation of ERK (Western blot) ([3]; 10 μM): potently suppressed phosphorylation of ERK
inhibition of proliferation of HCT-116 cells (MTT) [6]: dose-dependently inhibit proliferation
inhibition of proliferation of H23 cells (MTT) [7]: dose-dependently inhibit proliferation

Structure (SMILES): COc1ccc(CC/C(=C/C(=O)N2CCN(c3ccccc3OC)CC2)c2ccccc2)cc1F [Compound 1261]
inhibition of proliferation of Panc10.05 cells (MTT) [5]: dose-dependently inhibit proliferation
inhibition of proliferation of HCT-116 cells (MTT) [6]: dose-dependently inhibit proliferation
inhibition of proliferation of H23 cells (MTT) [7]: dose-dependently inhibit proliferation

Structure (SMILES): Fc1ccccc1CSc1ncnc2c1ncn2C1CCCO1 (stereo not drawn) [Compound V131]
ERG inhibition in ERG-dependent reporter assay (ERG): potent inhibitor of ERG; also recorded: ERG inhibitors
ESE-1 inhibition in ESE-1 dependent reporter assay (ESE-1): ESE-1 inhibitors

More lines, main results first:

ERG inhibition in ERG-dependent reporter assay (ERG): ERG inhibitors
ESE-1 inhibition in ESE-1 dependent reporter assay (ESE-1): ESE-1 inhibitors
activation of hSTING in ISRE-luc reporter assay (human STING (hSTING)): activate hSTING
Structure (SMILES): Oc1ccc(-c2nc(Cc3c[nH]c4ccccc34)oc2-c2ccc(O)cc2)cc1 [Compound 698]
inhibition of expression of EZH2, c-Myc and ERG [1]: inhibit expression of EZH2, c-Myc and ERG

activity against GATA3 in GATA3-dependent reporter assay (human GATA3): inactive against GATA3
direct binding with KRAS G12D mutant (SPR) [2]: Direct binding
pKd [2]: 3.72
GATA2 inhibition in GATA2-dependent reporter assay (human GATA2): GATA2 inhibitors
Structure (SMILES): O=C(Cc1c[nH]c2ccccc12)NCc1nc(-c2ccccc2)c(-c2ccccc2)o1 [Compound 784]
induction of apoptosis (cleaved PARP, Western blot) (Panc 10.05 cells): induced apoptosis
suppression of phosphorylation of ERK (Western blot) ([3]; designated doses): dose-dependently suppressed phosphorylation of ERK

ETV1 inhibition in ETV1-dependent reporter assay (ETV1): ETV1 inhibitors
Structure (SMILES): c1coc(-c2nc(Cc3c[nH]c4ccccc34)oc2-c2ccco2)c1 [Compound 827]
cytotoxicity in ETV1-positive LNCaP cells (MTT) (LNCaP cells): cytotoxic
